From patent US12458052B2, “Human milk oligosaccharides for use in enhancing executive function” (Glycom A/S, priority 2019, dated 2025)

Tested on: genes related to myelination; myelination and myelin sheath pathway
Experiment: gene expression and KEGG pathway analysis of brain samples, cross-fostering to St6Gal1 KO dams
Format: in vivo, mice
Conditions: presence in maternal milk, especially during early life
Text: Adult wild-type (WT) B6.129 and heterozygous (HZ) B6.129-St6gal1^tm2Jxm breeding pairs (four males and four females and three males and four females, respectively) were purchased from a commercial breeder (The Jackson Laboratory). Upon arrival, same-sex mice were housed in same-sex groups of 2-3 in type-1 polycarbonate cages (33.0×13.0×14.0 cm) equipped with sawdust bedding, an enrichment bag (Mucedola, Settimo Milanese, Italy), metal top and ad libitum water and food pellets (Mucedola, Settimo Milanese, Italy). Mice were maintained on a reversed 12-h-light-dark cycle (light on at 7:00 PM) in an air-conditioned room (temperature 21±1° C. and relative humidity 60±10%). Two weeks after arrival, breeding triads (one male, two females) were formed. After two weeks of mating, male mice were removed and females were housed individually in standard type-1 cages. Females were checked daily for delivery and the day in which they gave birth was designated as postnatal day (PND) 0. […]
Quantification is performed using Quant It Ribogreen assay (Life Technologies) QC assessment is performed using Standard sensitivity RNA kit on Fragment Analyzer 96 (Agilent). […]
Library generation starts with oligodT priming containing the Illumina-specific Read 2 linker sequence. […] The random primer contains the Illumina-specific Read 1 linker sequence. […]

CC(=O)N[C@H]1[C@H]([C@H](O)[C@H](O)CO)O[C@@](OC[C@H]2O[C@@H](O[C@H]3[C@H](O)[C@@H](O)[C@H](O)O[C@@H]3CO)[C@H](O)[C@@H](O)[C@H]2O)(C(=O)O)C[C@@H]1O [6′-SL, 6′-sialyllactose]
optimal myelination of the prefrontal cortex: necessary
